Experimental findings from paper PMC10214512 (2023) are described below.

Assay [1] relates to Cy5 NRAS 5'UTR G4 (RNA, G4) UGUGGGAGGGGCGGGUCUGGGUGC
Briefly: MST thermophoresis. The settings on record: 100 mM KCl, 10 mM MgCl2; binding only at millimolar concentrations, KD not established; label of G4 construct not stated for this assay.

The test system is the same in assay [2]. Kind of assay: fluorescence quenching (Cy5). Particulars: 100 mM KCl, 10 mM MgCl2.
Setting [3] is: 20 mM HEPES pH 7.4, 25 °C, group value close to 200 nM.

With `[N-]=[N+]=NCCOCCOCCOCCOCCOCCn1ccnc1`, in assay [1], the binding entry is reported as “weak”.

For `NCCOc1cc(NC(=O)c2cc(OCc3cn(CCC(=O)O)nn3)cc(C(=O)Nc3cc(OCCN)c4ccccc4n3)n2)nc2ccccc12`, the KD (usually the free concentration of one partner at which half of the binding sites on the other are occupied at equilibrium, for simple one-to-one binding) in assay [2] (setting [3]) is reported as 191 nM.

As to `NCCOc1cc(C(=O)Nc2cc(OCCN)c3ccccc3n2)nc(C(=O)Nc2cc(OCCN)c3ccccc3n2)c1`, the KD in assay [2] (20 mM HEPES pH 7.4, 25 °C read after 30 min at 4 °C, 50 nM RNA) is reported as 26 nM. That is a double-digit nanomolar value.

`NCCOc1cc(NC(=O)c2cc(OCc3cn(CCOCCOCCOCCn4ccnc4)nn3)cc(C(=O)Nc3cc(OCCN)c4ccccc4n3)n2)nc2ccccc12`: in assay [2] (setting [3]), the KD is recorded as 211 nM. In other words, the sub-micromolar range.

Turning to `NCCOc1cc(NC(=O)c2cc(OCc3cn(CCOCCOCCOCCOCCOCCn4ccnc4)nn3)cc(C(=O)Nc3cc(OCCN)c4ccccc4n3)n2)nc2ccccc12`, the KD in assay [2] (setting [3]) amounted to 137 nM.
